# Test results: patent US11976068B2 (CHIMERIX, INC., priority 2015, dated 2024)
# Several values for one entry are separate records, joined by “and”; a condition that tells them apart may be missing. Equal values may be shown once.
# Tests used:
# [1] = Phase I trial, plasma pharmacokinetics of oral ONC201; details: for AUC(0-t): AUClast; for Vd/F: Vz/F
# [2] = Phase I trial, safety and toxicity assessment; details: for Adverse Events Grade 1 / Adverse Events Grade 2-4: dose escalation phase
# [3] = N=6 patients receiving 625 mg ONC201 every three weeks
# [4] = human, in vivo, 625 mg, Mean, N=6 patients receiving 625 mg ONC201 every three weeks
# [5] = human, in vivo, 625 mg, Median, N=6 patients receiving 625 mg ONC201 every three weeks
# [6] = human, in vivo, 625 mg, Geo. Mean, N=6 patients receiving 625 mg ONC201 every three weeks
# [7] = Pat # 1, NSCLC, 125 mg every three weeks
# [8] = Pat # 2, Appendiceal adenocarcinoma, 250 mg every three weeks
# [9] = Pat # 3, Uterine cancer, 375 mg every three weeks
# [10] = Pat # 4, Renal cancer, 500 mg every three weeks
# [11] = Pat # 5, Breast cancer, 625 mg every three weeks
# [12] = Pat # 6, Prostate adenocarcinoma, 625 mg every three weeks
# [13] = Pat # 7, Small cell lung cancer, 625 mg every three weeks
smiles,measurement,setting,value
"Cc1ccccc1CN1C(=O)C2=C(CCN(Cc3ccccc3)C2)N2CCN=C12 [ONC201, 7-benzyl-4-(2-methylbenzyl)-2,4,6,7,8,9-hexahydroimidazo [1,2-a]pyrido[3,4-e]pyrimidin-5(1H)-one]","AUC, Min",[1]; [3],13868 h · ng/m
same,"CL/F, Geo. Mean",[1]; [3],25.41 L/h
same,"CL/F, Max",[1]; [3],45.07 L/h
same,"CL/F, Mean",[1]; [3],27.19 L/h
same,"CL/F, Median",[1]; [3],24.83 L/h
same,"CL/F, Min",[1]; [3],14.03 L/h
same,"Cmax, Max",[1]; [3],7470 ng/mL
same,"Cmax, Min",[1]; [3],1530 ng/mL
same,"Tlag, Max",[1]; [3],0.30 h
same,"Tlag, Mean",[1]; [3],0.05 h
same,"Tlag, Median",[1]; [3],0.00 h
same,"Tlag, Min",[1]; [3],0.00 h
same,"Tmax, Max",[1]; [3],3.95 h
same,"Tmax, Min",[1]; [3],22.2 min
same,"t1/2, Max",[1]; [3],12.55 h
same,"t1/2, Min",[1]; [3],7.71 h
same,"λZ, Geo. Mean",[1]; [3],0.073 h⁻¹
same,"λZ, Max",[1]; [3],0.090 h⁻¹
same,"λZ, Mean",[1]; [3],0.074 h⁻¹
same,"λZ, Median",[1]; [3],0.072 h⁻¹
same,"λZ, Min",[1]; [3],0.055 h⁻¹
same,concentration at 24 h,"[1]; human, in vivo",900 nM
same,Vd,"[1]; human, in vivo, 625 mg",381 L
same,AUC,"[1]; human, in vivo, 625 mg, AUC, Geo. Mean, N=6 patients receiving 625 mg ONC201 every three weeks",24600 ng·h/mL
same,AUC,"[1]; human, in vivo, 625 mg, AUC, Mean, N=6 patients receiving 625 mg ONC201 every three weeks",26300 ng·h/mL
same,AUC,"[1]; human, in vivo, 625 mg, AUC, Median, N=6 patients receiving 625 mg ONC201 every three weeks",25600 ng·h/mL
same,AUC(0-t),[1]; [4],25500 ng·h/mL
same,AUC(0-t),[1]; [5],24300 ng·h/mL
same,Cmax,"[1]; human, in vivo, 625 mg, Cmax, Geo. Mean, N=6 patients receiving 625 mg ONC201 every three weeks",2890 ng/mL
same,Cmax,"[1]; human, in vivo, 625 mg, Cmax, Mean, N=6 patients receiving 625 mg ONC201 every three weeks",3310 ng/mL
same,Cmax,"[1]; human, in vivo, 625 mg, Cmax, Median, N=6 patients receiving 625 mg ONC201 every three weeks",2720 ng/mL
same,AUC,"[1]; human, in vivo, 625 mg, Mean AUC, top dose cohort (625 mg)",26300 ng·h/mL
same,Tmax,[1]; [6],1.34 h
same,Tmax,[1]; [4],1.79 h
same,Tmax,[1]; [5],1.91 h
same,Vd/F,[1]; [6],348 L
same,Vd/F,[1]; [4],381 L
same,Vd/F,[1]; [5],404 L
same,Cmax,"[1]; human, in vivo, 625 mg, mean Cmax, top dose cohort (625 mg), first dose",3310 ng/mL
same,half-life,"[1]; human, in vivo, 625 mg, mean t1/2, top dose cohort (625 mg)",577 min
same,half-life,"[1]; human, in vivo, 625 mg, t1/2, Geo. Mean, N=6 patients receiving 625 mg ONC201 every three weeks",569 min
same,half-life,"[1]; human, in vivo, 625 mg, t1/2, Mean, N=6 patients receiving 625 mg ONC201 every three weeks",577 min
same,half-life,"[1]; human, in vivo, 625 mg, t1/2, Median, N=6 patients receiving 625 mg ONC201 every three weeks",576 min
same,Cmax,"[1]; human, in vivo, Cmax, plasma, as quoted for the CYP margin",9 µM
same,AUC,"[1]; human, in vivo, po, 625 mg, AUC, oral ONC201, PK analysis",25000 ng·h/mL
same,Cmax,"[1]; human, in vivo, po, 625 mg, Cmax, 625 mg (RP2D) orally every 3 weeks",1500 ng/mL to 7500 ng/mL and 3.9 µM to 19.4 µM
same,half-life,"[1]; human, in vivo, po, 625 mg, half-life, oral ONC201, PK analysis",576 min
same,"dose at which plasma concentrations / systemic exposure (AUC, Cmax) saturated","[1]; oral, dose escalation 125-625 mg",375 mg
same,"only adverse event possibly attributed to ONC201, expansion phase","[2]; 10 patients, 625 mg every 3 weeks",vomiting in one patient
same,"only adverse event possibly attributed to ONC201, dose escalation phase","[2]; 10 patients, 125-625 mg every 3 weeks",low grade fever in one patient
same,Adverse Events Grade 1,[2]; [7],Fever
same,Adverse Events Grade 2-4,[2]; [7],0
same,Adverse Events Grade 1,[2]; [8],0
same,Adverse Events Grade 2-4,[2]; [8],0
same,Adverse Events Grade 1,[2]; [9],0
same,Adverse Events Grade 2-4,[2]; [9],0
same,Adverse Events Grade 1,[2]; [10],0
same,Adverse Events Grade 2-4,[2]; [10],0
same,Adverse Events Grade 1,[2]; [11],0
same,Adverse Events Grade 2-4,[2]; [11],0
same,Adverse Events Grade 1,[2]; [12],0
same,Adverse Events Grade 2-4,[2]; [12],0
same,Adverse Events Grade 1,[2]; [13],0
same,Adverse Events Grade 2-4,[2]; [13],0
